System: HCV genotype 1b replicon cells (Huh-luc)
Test: Antiviral combination study of Compound 1 and Compound 2 in the HCV 1b replicon system (luciferase readout, MacSynergy II analysis)
Type: cell-based
Experimental: HCV genotype 1b replicon cells (Huh-luc) were obtained from Reblikon (Mainz, Germany). The replicon in these cells is designated I389luc-ubi-neo/NS3-3′/ET and encodes a selectable resistance marker (neomycin phosphotransferase) as well as the firefly luciferase reporter gene. Huh-luc cells were maintained in Dulbecco's Modified Eagle's Medium (DMEM; GIBCO, Carlsbad, Calif.) supplemented with 10% fetal bovine serum (FBS; Hyclone, Logan, Utah) and 0.5 mg/mL of G-418 (GIBCO). Cells were passaged twice a week and maintained at subconfluent levels.
Replicon cells were seeded in 96-well plates at a density of 5×10^3 cells per well in 100 μL of DMEM culture medium, excluding G-418. Compounds 1 and 2 were serially diluted 1:3 in 100% DMSO (Sigma). These serial dilutions were added to the cells at a 1:200 dilution to achieve a final concentration of 0.5% DMSO in a total volume of 200 μL. Plates were incubated at 37° C. for 3 days, after which culture media were removed and cells were lysed and assayed for luciferase activity using a commercial luciferase assay (Promega, Madison, Wis.). HCV replication levels in drug-treated samples were expressed as a percentage of those in untreated controls (defined as 100%), and data were fit to the logistic dose response equation y=a/(1+(x/b)c) using XLFit4 software (IDBS, Emeryville, Calif.). EC50 values were calculated from the resulting equations as described previously (Delaney, W. E., et al., Antimicrobial Agents Chemotherapy, 45(6):1705-1713 (2001)).
Replicon cells were seeded in 96-well plates at a density of 5×10^3 cells per well in 100 μL of culture medium. Compounds 1 and 2 were serially diluted in 100% DMSO as described above and added in a matrix format to 96-well plates, achieving a defined set of different drug concentrations and ratios in a final volume of 200 μL and a final DMSO concentration of 0.5%. For each individual drug, the EC50 value was selected as the midpoint for the concentration range tested. Cells were incubated for three days and analyzed for luciferase expression as indicated above. For the combination study, two independent experiments were performed in triplicate.
The calculated volumes of surface deviations are expressed in nM^2%. Per Prichard and Shipman, combination effects are defined as: • Highly synergistic if volumes >100 nM^2. • Moderately synergistic if volumes are >50 and ≦100 nM^2. • Additive if volumes are >−50 nM^2 and ≦50 nM^2. • Moderately antagonistic if volumes are >−100 nM^2 and ≦−50 nM^2. • Antagonistic if volumes are ≦−100 nM^2.

[1] = drug used in combination with Compound 1, 3 days, mean ± standard deviation of two or three independent experiments in triplicate

SMILES | Antagonism Volume [1] [nM^2] | Synergy Volume [1] [nM^2] | interaction (drug used in combination with Compound 1, classification per Prichard and Shipman) | interaction (Compound 1 with Compound 2)
CCC[C@H](NC(=O)[C@@H]1[C@H]2CCC[C@H]2CN1C(=O)[C@@H](NC(=O)[C@@H](NC(=O)c1cnccn1)C1CCCCC1)C(C)(C)C)C(=O)C(=O)NC1CC1 [Compound 2, (1S,3aR,6aS)—N-[1(S)-[2-(Cyclopropylamino)oxalyl]butyl]-2-[N-(pyrazin-2-ylcarbonyl)-L-cyclohexylglycyl-3-methyl-L-valyl]perhydrocyclopenta[c]pyrrole-1-carboxamide] | 0 ± 0 | 79.5 ± 10.5 | Moderate synergy | –
Fc1ccccc1-c1nc2ccn(Cc3ccc(-c4ccc(C(F)(F)F)cc4C(F)(F)F)nn3)cc-2n1 [Compound 1, 5-({6-[2,4-bis(trifluoromethyl)phenyl]pyridazin-3-yl}methyl)-2-(2-fluorophenyl)-5H-imidazo[4,5-c]pyridine] | – | – | – | moderate synergistic interaction

Source: patent US20100324059A1, “PHARMACEUTICAL COMPOSITIONS USEFUL FOR TREATING HCV” (Gilead Sciences, Inc., priority 2009, published 2010)
